Literature values in article PMC9611758, “Bioactive Platinum(IV) Complexes Incorporating Halogenated Phenylacetates” (Molecules, 2022).

How the values were obtained:
Design in all cases: method as in PMID 36142383
Conditions in all cases: MTT assay, 72 h; cited from earlier work
[1] = tested on: MIA pancreas
[2] = tested on: SJ-G2 glioblastoma
[3] = tested on: U87 glioblastoma
[4] = tested on: BE2-C neuroblastoma
[5] = tested on: A431 skin
[6] = tested on: A2780 ovarian
[7] = tested on: ADDP-resistant ovarian variant
[8] = tested on: Du145 prostate
[9] = tested on: H460 lung
[10] = tested on: MCF-7 breast
[11] = tested on: HT29 colon
[12] = tested on: non-tumour derived MCF10A breast line

SMILES | GI50 [1] | GI50 [2] | GI50 [3] | GI50 [4] | GI50 [5] | GI50 [6] | GI50 [7] | GI50 [8] | GI50 [9] | GI50 [10] | GI50 [11] | GI50 [12]
O=C1[O][Pt]2([NH][C@@H]3CCCC[C@H]3[NH]2)[O]C1=O (relative stereo) [Oxaliplatin, trans-L-(1R,2R-diaminocyclohexane) oxalatoplatinum(II)] | 0.9 ± 0.2 µM | 3 ± 1.2 µM | 1.8 ± 0.2 µM | 0.9 ± 0.2 µM | 4.1 ± 0.5 µM | 0.16 ± 0.1 µM | 0.8 ± 0.1 µM | 2.9 ± 0.4 µM | 1.6 ± 0.1 µM | 0.5 ± 0.1 µM | 0.9 ± 0.2 µM | –
N.N.O=C([O-])C1(C(=O)[O-])CCC1.[Pt+2] [Carboplatin, cis-diammine(1,1-cyclobutanedicarboxylato) platinum(II)] | > 50 µM | 5.7 ± 0.2 µM | > 50 µM | 19 µM | 24 µM | 9.2 ± 2.9 µM | > 50 µM | 15 µM | 14 µM | > 50 µM | > 50 µM | > 50 µM
